The results in this text go back to patent US11970474B2, “Substituted benzodiazoles and use thereof in therapy” (THOMAS HELLEDAYS STIFTELSE FÖR MEDICINSK FORSKNING, priority 2018, dated 2024).

In one assay the test system is H460. In words: Colony formation survival assay. The following applies: cancer cell line H460; 7-11 days. The assay is classed as cell-based. The procedure: (§1) Example compounds or vehicle are transferred to 6-well plates. Cell lines to be tested are seeded at a density of 200-500 cells/well in suitable media and allowed to grow for 7-11 days in at 5% CO2, 37° C. The medium is removed and replaced with 4% w/v methylene blue in methanol. Following extensive washes in tap water and air drying, […] with more than 50 […] are counted, as described in Franken, Nicolaas A. P., et al., Nature Protocols, 1(5), 2315-19 (2006).

Another assay has as its system ACHN. In words: Colony formation survival assay. Type of assay: cell-based. The conditions noted are these: cancer cell line ACHN; 7-11 days. The procedure:
as §1

Another assay concerns MLE-12 cells. Description: Pro-inflammatory gene regulation induced by TNFα. The assay is classed as cell-based, mouse. The following applies: 20 ng/ml TNFα, 5 μM compound. The procedure:
MLE-12 cells are maintained in suitable medium and treated with vehicle or 5 μM experimental compound for 48 h before stimulation with 20 ng/ml TNFα for 30 minutes. RNA is extracted and reverse-transcribed, followed by quantitative PCR evaluation of a panel of pro-inflammatory regulators (SABiosciences) essentially as described in Ba, Xueqing, et al., The Journal of Immunology, 192(5), 2384-94 (2014).

Turning to `O=C(Nc1ccc(I)cc1)N1CCC(n2c(=O)[nH]c3c(Br)cccc32)CC1` [Example 13, 4-(4-Bromo-2-oxo-2,3-dihydro-1H-1,3-benzodiazol-1-yl)-N-(4-iodophenyl)piperidine-1-carboxamide], the colony formation entry in the assay with H460 and with ACHN was “inhibits colony formation” in each case. The “pro-inflammatory gene regulation induced by the cytokine TNFα” value in the assay on MLE-12 cells was “reduces pro-inflammatory gene regulation”.
